According to patent US20190241660A1, “IMMUNE-STIMULATING PEPTIDES AND CHECKPOINT INHIBITORS, AND USES THEREOF FOR TREATING CANCER” (INTENDET SERVICES, LLC, priority 2017, published 2019):

How the values were obtained:
[1] = test system: E.G7-OVA murine lymphoma cells; experiment: Pilot dose response study, INT-151 once vs 3× weekly alone and with anti-CTLA-4 (E.G7-OVA-e215 protocol)
[2] = test system: E.G7-OVA murine lymphoma cells; experiment: E.G7-OVA syngeneic mouse lymphoma model, INT-151 with anti-CTLA-4 (E.G7-OVA-e214 protocol)
[3] = test system: immune cell profile in peripheral blood; experiment: Immune profiles of peripheral blood by FACS analysis in lymphoma bearing mice; type: in vivo, C57BL/6 mice
From the text: (§1) In this study the immune cell profile in tumors and blood in lymphoma bearing mice was compared for a 3 times weekly dose of INT-151 and anti-CTLA-4 alone to the combination of 3 times weekly INT-151 plus anti-CTLA-4.
(§2) On day 17 after treatment began, when tumors reached a volume of 500-600 mm^3, mice were sacrificed and tumors and blood was collected for Fluorescent Activated Cell Sorting (FACS) analysis to determine the following immune cell types as listed in the table below:
(§3) Animals were to be monitored individually. Randomization into treatment groups was conducted when tumors reached an average of 43 mm^3 (n=6). Mice were euthanized after 17 days to collect tumors and blood for FACS analysis.

[4] = test system: immune cell profile in tumors; experiment: Immune profiles of tumors by FACS analysis in lymphoma bearing mice; type: in vivo, C57BL/6 mice
From the text: as §1, §2, §3

[5] = test system: E.G7-OVA murine lymphoma cells; experiment: Tumor volume in immune cell profile study of established tumors (E.G7-OVA-e217 protocol); type: in vivo, C57BL/6 mice; conditions: at study end; INT-151 100 μg/animal 3 times a week; anti-CTLA-4 100 μg then 50 μg ×2; n=6; FIG. 6
From the text: as §1, §2, §3

T cell = conditions: in the presence of tetanus toxoid or concanavalin A; Sinha 1988; cited from earlier work
[6] = INT-151 100 μg/animal 1× weekly (alone or with anti-CTLA-4 days 6, 9, 12), only animals with tumor take
[7] = INT-151 100 μg/animal 3× weekly (alone or with anti-CTLA-4), only animals with tumor take
[8] = INT-151 in combination with anti-CTLA-4

N[C@@H](Cc1ccc(O)cc1)C(=O)NCC(=O)O [INT-151, tyrosyl-glycine]
% Alive on day 26 [1, 6]: 100% | % Alive on day 29 [1, 6]: 100% | % Alive on day 33 [1, 6]: 60% | % Alive on day 36 [1, 6]: 20% | % Alive on day 43 [1, 6]: 0% | % Alive on day 26 [1, 7]: 100% | % Alive on day 29 [1, 7]: 100% | % Alive on day 33 [1, 7]: 80% | % Alive on day 36 [1, 7]: 40% | % Alive on day 40 [1, 7]: 30% | % Alive on day 43 [1, 7]: 0% | clinical improvement (median tumor volume and survival) ([1]; INT-151 3 times weekly, alone or with anti-CTLA-4, FIG. 5): greater clinical improvement | synergy with anti-CTLA-4 on survival [1, 8]: synergizes | tolerability ([1]; each treatment group): well tolerated | synergy with anti-CTLA-4 on survival [2, 8]: acts synergistically | overall survival ([2]; compared to control, FIG. 3, FIG. 4): not INT-151, demonstrated improved overall survival | body-weight (clinical improvement) ([2]; compared to untreated Group 1, FIG. 2): slight positive clinical improvement | median tumor volume growth / tumor size ([2]; compared to untreated Group 1, INT-151 100 μg/animal i.p. weekly from Day 6, anti-CTLA-4 Days 6, 9, 12, FIG. 1): slight positive clinical improvement | CD4+ T cell population ([3]; compared to controls, FIG. 8): did not affect | CD8+ T cell population ([3]; compared to controls, FIG. 8): did not affect | M1 macrophage population ([3]; compared to controls, FIG. 8): unchanged | M2 macrophage population ([3]; compared to controls, FIG. 8): elevated | Monocytic myeloid suppressor cells ([3]; compared to controls, FIG. 8): not affected | granulocytic MDSCs ([3]; compared to controls, FIG. 8): reduced | regulatory T cells ([3]; compared to controls, FIG. 8): did not affect | total macrophage population ([3]; compared to controls, FIG. 8): increased | ratio of CD8+T/Treg ([3]; controls 8.4): 6.4 | CD4+T cells ([4]; compared to controls, FIG. 7): unchanged | CD8+ T cell population ([4]; compared to controls, FIG. 7): did not affect | M1 macrophage population ([4]; compared to controls, FIG. 7): decreased | M2 macrophage population ([4]; compared to controls, FIG. 7): increasing | granulocytic myeloid suppressor cells ([4]; compared to controls, FIG. 7): unchanged | regulatory T cells ([4]; compared to controls, FIG. 7): did not affect | ratio of CD8+T/Treg ([4]; control group 3.2): 2.5 | Median tumor volumes [5]: 831.0 mm^3

CC(C)CC(NC(=O)C(Cc1ccccc1)NC(=O)CNC(=O)CNC(=O)C(N)Cc1ccc(O)cc1)C(=O)O (stereo not shown) [leu-enkephalin, tyr-gly-gly-phe-leu]
T cell proliferation (T cell): elicit T cell proliferation

tyr-gly-gly-phe-met [met-enkephalin]
T cell proliferation (T cell): elicit T cell proliferation
